According to patent US7713994B2 (Wyeth LLC, priority 2005, dated 2010):
Structures can show the parent of a compound that is named as a salt. Where two headings read alike, the source gives them in different places.

Columns and labels:
[1] = tested on: MCF-7; experiment: Cytotoxicity assay (SRB), MCF-7; format: cell-based; settings: MCF-7 cells, SRB, read-out: In Vitro Cellular Activity IC50 MCF-7
In short: (§1)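 Cells were seeded overnight in RPMI 1640 with 5% FBS at 37 °C, 7% CO2 (12000/well BT474, 4000 HCT-116, 6000 LoVo, 6000 MCF-7), then exposed to compound dilutions for 3 days (6 days for BT474). Survival versus untreated controls was measured by TCA fixation and SRB staining at 540 nm.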

[2] = target: T1, cyclin E/CDK2 enzyme (Homo sapiens, UniProt P24941); experiment: CDK2 ELISA kinase assay (phospho-Rb ser 795 detection); format: biochemical; settings: read-out: CDK2 IC50
T1 construct: made in house; host or cells: Sf9 insect cells, recombinant baculovirus
In short: (§2)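 Partially purified Sf9-expressed cyclin D1/CDK4, cyclin E/CDK2 or cyclin B/CDK1 phosphorylated plate-bound GST-Rb C-terminal fragment with 200 μM ATP at 30° C for 1 h.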

[3] = target: T2, cyclin D1/cdk 4 enzyme (Homo sapiens, UniProt P11802); experiment: CDK4 ELISA kinase assay (phospho-Rb ser 795 detection); format: biochemical; settings: read-out: CDK4 IC50
T2 construct: made in house; host or cells: Sf9 insect cells, recombinant baculovirus
In short: as §2

[4] = tested on: HCT-116; experiment: Cytotoxicity assay (SRB), HCT-116; format: cell-based; settings: HCT116 cells, SRB, read-out: In Vitro Cellular Activity IC50 HCT116
In short: as §1

[5] = tested on: LoVo; experiment: Cytotoxicity assay (SRB), LoVo; format: cell-based; settings: LoVo cells, SRB, read-out: In Vitro Cellular Activity IC50 LOVO
In short: as §1

[6] = tested on: BT474; experiment: Cytotoxicity assay (SRB), BT474; format: cell-based
In short: as §1

[7] = target: T3, cyclin B/CDK1 enzyme (Homo sapiens, UniProt P06493); experiment: CDK1 ELISA kinase assay (phospho-Rb ser 795 detection); format: biochemical; settings: read-out: CDK1 IC50
T3 construct: purchased New England BioLabs; host or cells: Sf9 insect cells, recombinant baculovirus
In short: as §2

[8] = Homo sapiens, MCF7, 72 h, 3 days
[9] = Homo sapiens, HCT-116, 72 h, 3 days
[10] = Homo sapiens, LoVo, 72 h, 3 days
[11] = Homo sapiens, BT-474, 144 h, BT474 cells, 6 days, SRB; read-out: In Vitro Cellular Activity IC50 BT474
[12] = In Vitro Enzyme Assays, 200 μM ATP
[13] = BT474 cells, SRB, 6 days; read-out: In Vitro Cellular Activity IC50 BT474

T2 sequence (P11802 whole entry, species assumed): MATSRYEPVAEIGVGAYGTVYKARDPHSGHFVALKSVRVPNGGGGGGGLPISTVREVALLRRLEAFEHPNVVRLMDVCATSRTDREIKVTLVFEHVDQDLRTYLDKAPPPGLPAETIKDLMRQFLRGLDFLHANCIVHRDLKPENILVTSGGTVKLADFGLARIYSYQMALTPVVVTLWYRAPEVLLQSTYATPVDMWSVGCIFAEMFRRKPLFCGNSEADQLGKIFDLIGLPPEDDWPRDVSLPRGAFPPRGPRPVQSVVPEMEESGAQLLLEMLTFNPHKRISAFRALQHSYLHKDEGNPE
T2 sequence (P24385 whole entry partner, species assumed): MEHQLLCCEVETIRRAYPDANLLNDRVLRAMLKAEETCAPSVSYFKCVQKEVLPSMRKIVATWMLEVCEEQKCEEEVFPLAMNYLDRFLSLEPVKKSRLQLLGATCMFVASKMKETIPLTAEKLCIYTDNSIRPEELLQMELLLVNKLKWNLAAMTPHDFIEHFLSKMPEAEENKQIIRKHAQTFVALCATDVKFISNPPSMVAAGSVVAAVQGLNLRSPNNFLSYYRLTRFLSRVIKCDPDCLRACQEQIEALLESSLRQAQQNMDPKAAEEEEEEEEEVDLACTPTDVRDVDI
T3 sequence (P06493 whole entry): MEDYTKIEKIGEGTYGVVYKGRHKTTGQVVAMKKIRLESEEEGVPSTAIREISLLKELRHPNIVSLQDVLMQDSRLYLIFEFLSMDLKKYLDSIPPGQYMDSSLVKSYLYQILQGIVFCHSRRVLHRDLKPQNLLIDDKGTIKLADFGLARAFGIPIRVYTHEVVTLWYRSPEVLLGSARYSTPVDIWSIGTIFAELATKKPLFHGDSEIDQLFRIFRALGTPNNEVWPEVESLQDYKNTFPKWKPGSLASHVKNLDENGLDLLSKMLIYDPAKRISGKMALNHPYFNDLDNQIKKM
T3 sequence (P14635 whole entry partner): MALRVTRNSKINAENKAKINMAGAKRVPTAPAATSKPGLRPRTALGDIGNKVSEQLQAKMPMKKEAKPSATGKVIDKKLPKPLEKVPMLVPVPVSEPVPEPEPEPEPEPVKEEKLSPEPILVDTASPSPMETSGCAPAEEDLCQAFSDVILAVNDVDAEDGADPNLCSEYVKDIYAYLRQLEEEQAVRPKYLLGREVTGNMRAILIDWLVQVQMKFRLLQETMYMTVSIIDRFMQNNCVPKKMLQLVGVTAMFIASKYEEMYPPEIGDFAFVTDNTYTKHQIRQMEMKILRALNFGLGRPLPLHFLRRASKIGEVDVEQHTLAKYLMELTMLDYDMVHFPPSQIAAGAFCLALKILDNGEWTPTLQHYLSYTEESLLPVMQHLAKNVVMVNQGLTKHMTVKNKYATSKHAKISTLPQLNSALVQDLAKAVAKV

Molecule | melting point [°C] | IC50 ([2]; In Vitro Enzyme Assay) [µM] | IC50 ([3]; In Vitro Enzyme Assay) [µM] | IC50 ([7]; In Vitro Enzyme Assay) [µM] | IC50 [1, 8] [µM] | IC50 [4, 9] [µM] | IC50 [5, 10] [µM] | IC50 [6, 11] [µM] | further results
COc1ccc(CN/C=C2\C(=O)NC(=O)c3ccc(I)cc32)cc1O (as salt: hydrochloride) [Example 80, (4Z)-6-Iodo-4-{[(3-hydroxy-4-methoxybenzyl)amino]methylene}isoquinoline-1,3(2H,4H)-dione] | 209 to 210 | – | – | – | – | – | – | – | –
COc1ccc(CN/C=C2\C(=O)NC(=O)c3ccc(-c4ccsc4)cc32)cc1O (as salt: hydrochloride) [Example 88, (4Z)-4-{[(3-Hydroxy-4-methoxybenzyl)amino]methylene}-6-thien-3-ylisoquinoline-1,3(2H,4H)-dione] | 219 to 220 | – | – | – | – | – | – | – | –
COc1ccc(CN/C=C2\C(=O)NC(=O)c3ccccc32)cc1O (as salt: hydrochloride) [Example 98, (4Z)-4-{[(3-Hydroxy-4-methoxybenzyl)amino]methylene}isoquinoline-1,3(2H,4H)-dione] | 192 to 193 | – | – | – | – | – | – | – | –
O=C1NC(=O)c2ccc(Br)cc2/C1=C/NCc1ccc(OCCO)c(O)c1 (as salt: potassium) [Example 139, (4Z)-6-Bromo-4-({[3-hydroxy-4-(2-hydroxyethoxy)benzyl]amino}methylene)isoquinoline-1,3(2H,4H)-dione] | 166 to 167 | – | – | – | – | – | – | – | –
CC(=O)Nc1ccc(CN/C=C2\C(=O)NC(=O)c3ccc(I)cc32)cc1O (as salt: potassium) [Example 151, N-[2-Hydroxy-4-({[(Z)-(6-iodo-1,3-dioxo-2,3-dihydroisoquinolin-4(1H)-′ylidene)methyl]amino}methyl)phenyl]acetamide] | 345 to 346 | – | – | – | – | – | – | – | –
CCCOc1ccc(CN/C=C2\C(=O)NC(=O)c3ccc(-c4cccc(F)c4)cc32)cc1O (as salt: sodium) [Example 193, (4Z)-6-(3-Fluorophenyl)-4-{[(3-hydroxy-4-propoxybenzyl)amino]methylene}-isoquinoline-1,3(2H,4H)-dione] | 209 to 210 | – | – | – | – | – | – | – | –
CN(CCN1CCCCC1)c1ccc(N/C=C2\C(=O)NC(=O)c3ccc(Br)cc32)cc1 [Example 865, (4Z)-6-bromo-4-[({4-[methyl(2-piperidin-1-ylethyl)amino]phenyl}amino)methylene]isoquinoline-1,3(2H,4H)-dione] | – | > 50 | 4.3 | > 50 | 5.3 | 3.1 | 3.6 | 7.5 | –
CN(C)CCOc1ccc(N/C=C2\C(=O)NC(=O)c3ccc(Br)cc32)cc1 [Example 867, (4Z)-6-Bromo-4-[({4-[2-(dimethylamino)ethoxy]phenyl}amino)methylene]isoquinoline-1,3(2H,4H)-dione] | – | > 50 | 0.48 | > 50 | 6.7 | 3.5 | 5.3 | 8.3 | –
CN1Cc2ccc(N/C=C3\C(=O)NC(=O)c4ccc(Br)cc43)cc2C1 [Example 868, (4Z)-6-Bromo-4-{[(2-methyl-2,3-dihydro-1H-isoindol-5-yl)amino]methylene}isoquinoline-1,3(2H,4H)-dione] | – | 2.5 | 1.2 | 20.7 | 5.5 | 2.5 | 3.9 | 6.8 | –
CN(C)CCCc1ccc(N/C=C2\C(=O)NC(=O)c3ccc(Br)cc32)cc1 [Example 874, (4Z)-6-Bromo-4-[({4-[3-(dimethylamino)propyl]phenyl}amino)methylene]isoquinoline-1,3(2H,4H)-dione] | – | 38.8 | 3 | > 50 | 7.2 | 12.6 | 23.7 | 27.4 | –
O=C1NC(=O)c2ccc(Br)cc2/C1=C/Nc1ccc(CN2CCC(O)CC2)cc1 [compound 75] | – | – | – | – | – | – | – | – | IC50 ([1]; Homo sapiens, MCF7, 72 h, three days): 4.3 µM; IC50 ([2]; In Vitro Enzyme Assays): 7.2 µM; IC50 [3, 12]: 0.29 µM; IC50 ([4]; Homo sapiens, HCT-116, 72 h, three days): 5.8 µM; IC50 ([5]; Homo sapiens, LoVo, 72 h, three days): 6 µM; IC50 ([6]; Homo sapiens, BT-474, 144 h, BT474 cells, SRB, 6 days; read-out: In Vitro Cellular Activity IC50 BT474): 9.7 µM; IC50 ([7]; In Vitro Enzyme Assays): > 50 µM
(4Z)-4-{[(3-Hydroxy-4-propoxybenzyl)amino]methylene}-6-thiene-3-ylisoquinoline-,3(2H,4H)-dione [Example 183] | – | – | – | – | – | – | – | – | IC50 ([1]; three days): 8.8 µM; IC50 ([2]; In Vitro Enzyme Assays): > 50 µM; IC50 [3, 12]: 0.11 µM; IC50 ([4]; three days): 8.4 µM; IC50 ([5]; three days): 12 µM; IC50 [6, 13]: 13 µM; IC50 ([7]; In Vitro Enzyme Assays): > 50 µM
(4Z)-6-Piperidin-1-yl-4-({[4-(methylPiperzin-1-yl)phenyl]amino}methylene)isoquinoline-1,3(2H,4H)-dione [Example 119] | – | – | – | – | – | – | – | – | IC50 ([1]; three days): 6.2 µM; IC50 ([2]; In Vitro Enzyme Assays): > 50 µM; IC50 [3, 12]: 1.62 µM; IC50 ([4]; three days): 3.3 µM; IC50 ([5]; three days): 7.3 µM; IC50 [6, 13]: 7.5 µM; IC50 ([7]; In Vitro Enzyme Assays): > 50 µM
PEG5000thio-acetic acid 5-{[(6-bromo-1,3-dioxo-2,3-dihydro-1H-isoquinolin-4-ylidenemethyl)-amino]-methyl}-2-propoxy-phenyl ester [Example 228] | – | – | – | – | – | – | – | – | IC50 ([1]; three days): ~8.6 µM; IC50 ([2]; In Vitro Enzyme Assays): > 50 µM; IC50 [3, 12]: ~1.5 µM; IC50 ([4]; three days): ~2.1 µM; IC50 ([5]; three days): ~2.5 µM; IC50 [6, 13]: ~1.2 µM; IC50 ([7]; In Vitro Enzyme Assays): > 50 µM
PEG5000thio-acetic acid 5-{[(6-iodo-1,3-dioxo-2,3-dihydro-1H-isoquinolin-4-ylidenemethyl)-amino]-methyl}-2-propoxy-phenyl ester [Example 292] | – | – | – | – | – | – | – | – | IC50 ([1]; three days): ~6.5 µM; IC50 ([2]; In Vitro Enzyme Assays): ~33.9 µM; IC50 [3, 12]: ~1.5 µM; IC50 ([4]; three days): ~1.2 µM; IC50 ([5]; three days): ~1.2 µM; IC50 [6, 13]: ~0.9 µM; IC50 ([7]; In Vitro Enzyme Assays): ~19.7 µM

Second part, led by results:

melting point [°C] | IC50 ([2]; In Vitro Enzyme Assay) [µM] | IC50 ([3]; In Vitro Enzyme Assay) [µM] | IC50 ([7]; In Vitro Enzyme Assay) [µM] | Molecule | IC50 [1, 8] [µM] | IC50 [4, 9] [µM] | IC50 [5, 10] [µM] | IC50 [6, 11] [µM] | further results
245 to 246 | – | – | – | CN1CCN(c2ccc(N/C=C3\C(=O)NC(=O)c4ccccc43)cc2)CC1 | – | – | – | – | –
207 to 210 | – | – | – | CN1CCN(CCCNC=C2C(=O)NC(=O)c3ccc(-n4cccc4)cc32)CC1 (as salt: TFA) [Example 279, 4-{[3-(4-Methyl-piperazin-1-yl)-propylamino]-methylene}-6-pyrrol-1-yl-4H-isoquinoline-1,3-dione] | – | – | – | – | –
265 to 266 | – | – | – | COc1ccc(CN/C=C2\C(=O)NC(=O)c3ccc(Cl)cc32)cc1O (as salt: hydrochloride) [Example 67, (4Z)-6-Chloro-4-{[(3-hydroxy-4-methoxybenzyl)amino]methylene}isoquinoline-1,3(2H,4H)-dione] | – | – | – | – | –
– | 14.7 | 22.6 | > 50 | O=C1NC(=O)c2ccc(Br)cc2/C1=C/Nc1ccc(-n2ccnc2)cc1 [Example 869, (4Z)-6-Bromo-4-({[4-(1H-imidazol-1-yl)phenyl]amino}methylene)isoquinoline-1,3(2H,4H)-dione] | > 50 | 5.4 | > 50 | > 50 | –
– | 23.6 | 34.7 | 1.2 | CC(=O)Oc1cc(CN/C=C2\C(=O)NC(=O)c3ccc(Br)cc32)cc2c1OC(C)(C)O2 [Example 872, 6-({[(Z)-(6-Bromo-1,3-dioxo-2,3-dihydroisoquinolin-4(1H)-ylidene)methyl]amino}methyl)-2,2-dimethyl-1,3-benzodioxol-4-yl acetate] | 34.8 | 28.6 | 47.1 | > 50 | –
– | 24.7 | > 50 | 1.9 | CC1(C)Oc2cc(CN/C=C3\C(=O)NC(=O)c4ccc(Br)cc43)cc(OC(=O)C3CC3)c2O1 [Example 873, 6-({[(Z)-(6-Bromo-1,3-dioxo-2,3-dihydroisoquinolin-4(1H)-ylidene)methyl]amino}methyl)-2,2-dimethyl-1,3-benzodioxol-4-yl cyclopropanecarboxylate] | 29.2 | 24.5 | 41.1 | 42.7 | –
